From patent US8883504B2, “Cell differentiation suppressing agent, method of culturing cells using the same, culture solution, and cultured cell line” (Asahi Kasei Kabushiki Kaisha, priority 2003, dated 2014) come the findings set out here.

This experiment relates to Nanog gene. The experiment in a line: Nanog gene expression level by real time PCR (ES cell differentiation inhibition assay 3). It counts as cell-based, mouse. Particulars: D3ES cells, 4 μg/mL, 1 day, GAPDH internal standard, FIG. 7. How it is done:
For the D3ES cells prepared by the method described in (3) preparation of a mouse ES cell of Example 1, 7.85×10^5 cells were seeded in a 10 cm-diameter cell culture dish coated previously with a 0.1% aqueous gelatin solution to make 10 mL of the ES cell assay medium. The differentiation inhibiting agent B of the present invention in the final concentration of 4 μg/mL or ESGRO in the final concentration of 1×10^3 unit/mL was added to each dish, and culturing was carried out at 37° C. in 5% CO2 incubator for 1 day.
The total RNA was extracted from the ES cell cultured by the method shown in (3) ES cell differentiation inhibition assay 3 as described above by using ISOGEN (K.K. Nippon Gene Corp. Japan made) by the attached method. In this method, the cell was collected in a 15 mL sterilized tube, centrifuged at 1,000 rpm for about 5 minutes by using the table centrifuge (TOMY SEIKO made) to make pellets. The supernatant was removed, the pellets were washed twice with 10 mL of PBS, and then, transferred to a 1.5 mL Eppendorf tube. The pellets were dissolved in 1 ml ISOGENE and left stand at room temperature for 5 minutes and, then, added with 0.2 mL of chloroform (Wako Pure Chemicals), shaken for 15 seconds, and left stand at room temperature for 2 or 3 minutes. Centrifugation was carried out at 4° C. at 10,000 rpm for 15 minutes by using the micro centrifuge (TOMY SEIKO made), 400 μL of the supernatant was transferred to a fresh 1.5 mL Eppendorf tube. 500 μL of isopropanol (Wako Pure Chemicals) was added and the mixture was left stand at room temperature for 10 minutes and, then, was centrifuged at 4° C. at 10,000 rpm for 10 minutes by using the micro centrifuge. The supernatant was removed and, then, 1 mL of a 70% ethanol aqueous solution was added. The mixture was shaken and then was centrifuged at 4° C. at 10,000 rpm for about 5 minutes by using the micro centrifuge. The supernatant was removed and the precipitation was dried and, then, dissolved in 30 μL of distilled water to obtain the total RNA solution.
The cDNA was synthesized by using 2 μg of the total RNA obtained by such the way as the template, using DeoxyribonucleaseI (Amplification Grade) (Invitrogen Corp. made) and SuperScript III First-Strand Synthesis System for RT-PCR (Invitrogen Corp. made, 18080-051) by the attached protocol. In this step, 1 μL of 10× DNaseI Reaction Buffer, 1 μL of 10× DNaseI (all these were of Invitrogen Corp. made) were added to 2 μg of the total RNA to give the total volume of 10 μL by adding distilled water to prepare the reaction solution, and then incubation was carried out at room temperature for 10 minutes. 1 μL of 25 mM EDTA solution was added, and the mixture was heated at 65° C. for 10 minutes and then, cooled to room temperature. 8 μL of the reaction solution was taken out, and 1 μL of […] Oligo(dT) 20 primer and 1 μL of 10 mM dNTP Mix were added, and incubation was carried out at 65° C. for 5 minutes. The reaction solution was placed on ice for 1 minute, and then 2 μL of 10× RT Buffer, 4 μL of 25 mM MgCl2, 2 μL of 0.1 M DTT, 1 μL of RNaseOUT (Invitrogen Corp. made) and 1 μL of SuperScript III RT were added for incubation at 50° C. for 50 minutes. Subsequently, incubation was carried out at 85° C. for 5 minutes, and then the mixture was left stand on ice for 1 min. […] The expression level of the Nanog gene and the glyceraldehyde-3-phosphate dehydrogenase (GAPDH) gene as the internal standard were measured. […]
On the technique in general: Real-time PCR tracks product formation cycle by cycle.

Consider `CC(=O)c1ccc(/N=N/C(C(N)=O)=C2/NC(C)(C)Cc3ccccc32)cc1` [compound B, 2-(4-acetyl-phenylazo)-2-(3,3-dimethyl-3,4-dihydro-2H-isoquinoline-1-ylidene)-acetamide], for which the “expression level of Nanog gene in comparison with medium without agent and medium containing 1,000 units/mL of ESGRO” value is “increased significantly”. On to `CC1(C)Cc2ccccc2C(=C(N=Nc2cccc([N+](=O)[O-])c2)C(N)=O)N1` [E, 2-(3,3-dimethyl-3,4-dihydro-2H-isoquinoline-1-ylidene)-2-(3-nitro-phenylazo)-acetamide], for which the “expression level of Nanog gene in comparison with medium without agent and medium containing 1,000 units/mL of ESGRO” value is on record as “increased similarly to the differentiation inhibiting agents B”. Take `COc1ccc(N=NC(C(N)=O)=C2NC(C)(C)Cc3ccccc32)cc1` [F, 2-(3,3-dimethyl-3,4-dihydro-2H-isoquinoline-1-ylidene)-2-(4-methoxy-phenylazo)-acetamide]: the “expression level of Nanog gene in comparison with medium without agent and medium containing 1,000 units/mL of ESGRO” value is reported as “increased similarly to the differentiation inhibiting agents B”. For `CC1(C)Cc2ccccc2C(=C(N=Nc2cccc(Cl)c2)C(N)=O)N1` [C, 2-(3-chloro-phenylazo)-2-(3,3-dimethyl-3,4-dihydro-2H-isoquinoline-1-ylidene)-acetamide], the “expression level of Nanog gene in comparison with medium without agent and medium containing 1,000 units/mL of ESGRO” value is recorded as “increased similarly to the differentiation inhibiting agents B”.
